Results published in patent publication US7579469B2, “Glucocorticoid mimetics, methods of making them, pharmaceutical compositions, and uses thereof” (Boehringer Ingelheim Pharmaceuticals, Inc., priority 2003, dated 2009).

Each molecule was assayed against T1, human glucocorticoid receptor (GR) complex (Homo sapiens, UniProt P04150) (assay: Glucocorticoid receptor competitive binding assay (fluorescence polarization)). Conditions: competition with TAMRA-labeled dexamethasone.
T1 construct: made in house; host or cells: insect expression system (baculovirus lysate)
T1 sequence (P04150 1-777): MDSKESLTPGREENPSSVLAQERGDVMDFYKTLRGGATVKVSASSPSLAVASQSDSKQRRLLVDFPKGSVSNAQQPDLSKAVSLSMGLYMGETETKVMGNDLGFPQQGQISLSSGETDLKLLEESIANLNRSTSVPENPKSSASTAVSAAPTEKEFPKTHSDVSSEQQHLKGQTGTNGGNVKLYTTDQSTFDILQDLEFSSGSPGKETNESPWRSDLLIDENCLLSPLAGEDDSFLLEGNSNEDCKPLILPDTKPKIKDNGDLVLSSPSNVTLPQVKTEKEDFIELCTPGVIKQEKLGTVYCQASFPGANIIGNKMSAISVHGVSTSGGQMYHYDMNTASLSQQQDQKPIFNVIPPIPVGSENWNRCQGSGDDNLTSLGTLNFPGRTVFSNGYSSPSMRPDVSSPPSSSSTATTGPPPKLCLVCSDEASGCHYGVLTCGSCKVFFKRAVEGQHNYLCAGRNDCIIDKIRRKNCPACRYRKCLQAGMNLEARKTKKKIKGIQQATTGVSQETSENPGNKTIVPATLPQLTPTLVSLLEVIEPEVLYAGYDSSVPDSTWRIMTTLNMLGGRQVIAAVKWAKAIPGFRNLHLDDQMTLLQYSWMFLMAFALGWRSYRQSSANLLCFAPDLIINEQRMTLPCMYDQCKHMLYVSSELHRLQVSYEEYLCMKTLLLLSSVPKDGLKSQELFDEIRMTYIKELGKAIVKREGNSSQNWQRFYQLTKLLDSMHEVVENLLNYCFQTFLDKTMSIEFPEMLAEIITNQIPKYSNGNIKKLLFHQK
Outline: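 Fluorescence polarization competition against TAMRA-labelled dexamethasone (50 μL of 15 nM added) for human GR complex from baculovirus insect-cell lysate, diluted 1:170, in TES/KCl/molybdate buffer, pH 7.4.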

| Structure (SMILES) | activity in the GR binding assay |
| --- | --- |
| Cc1ccc(O)c(C(C)(C)CC(O)(Cn2ccc(=O)c3ccccc32)C(F)(F)F)c1 (stereo not drawn) [1-[2-Hydroxy-4-(2-hydroxy-5-methylphenyl)-4-methyl-2-trifluoromethylpentyl]-1H-quinolin-4-one] | potent activity |
| Cc1cn(CC(O)(CC(C)(C)c2cc(F)ccc2O)C(F)(F)F)c2ccccc2c1=O (stereo not drawn) | potent activity |
| Cc1cn(CC(O)(CC(C)(C)c2cccc3c2OCC3)C(F)(F)F)c(CO)c(C)c1=O (stereo not drawn) [1-[4-(2,3-Dihydrobenzofuran-7-yl)-2-hydroxy-4-methyl-2-trifluoromethylpentyl]-2-hydroxymethyl-3,5-dimethyl-1H-pyridin-4-one] | potent activity |
| CCC(C)(CC(O)(Cn1ccc(=O)c2ccccc21)C(F)(F)F)c1ccccc1 (stereo not drawn) [1-(2-Hydroxy-4-methyl-4-phenyl-2-trifluoromethylhexyl)-1H-quinolin-4-one] | potent activity |
| CC(C)(CC(O)(Cn1ccc(=O)c2ccccc21)C(F)(F)F)c1cccc(O)c1 (stereo not drawn) [1-[2-Hydroxy-4-(3-hydroxyphenyl)-4-methyl-2-trifluoromethylpentyl]-1H-quinolin-4-one] | potent activity |
| CCOc1cccc(C(C)(C)CC(O)(Cn2ccc(=O)c3ccccc32)C(F)(F)F)c1 (stereo not drawn) | potent activity |
| CC(C)(CC(O)(Cn1ccc(=O)c2ccccc21)C(F)(F)F)c1cccc(-c2cccnc2)c1 (stereo not drawn) | potent activity |
| CC(C)(CC(O)(Cn1ccc(=O)c2ccccc21)C(F)(F)F)c1cccc(-c2ccccc2)c1 (stereo not drawn) [1-(4-Biphenyl-3-yl-2-hydroxy-4-methyl-2-trifluoromethylpentyl)-H-quinolin-4-one] | potent activity |
| COC(=O)Oc1ccc(F)cc1C(C)(C)CC(O)(Cn1ccc(=O)c2ccccc21)C(F)(F)F (stereo not drawn) | potent activity |
| Cc1cc(F)ccc1C(C)(C)CC(O)(Cn1ccc(=O)c2ccccc21)C(F)(F)F (stereo not drawn) | potent activity |
| CC(C)(CC(O)(Cn1cnc(=O)c2ccccc21)C(F)(F)F)c1cc(F)ccc1O (stereo not drawn) | potent activity |
| CC(C)(CC(O)(Cn1ccc(=O)c2ccccc21)C(F)(F)F)c1cc(-c2ccccc2)ccc1O (stereo not drawn) [1-[2-Hydroxy-4-(4-hydroxybiphenyl-3-yl)-4-methyl-2-trifluoromethylpentyl]-1H-quinolin-4-one] | potent activity |
| COc1ccc(-c2ccsc2)cc1C(C)(C)CC(O)(Cn1ccc(=O)c2ccccc21)C(F)(F)F (stereo not drawn) | potent activity |
| CC(C)Oc1cccc(C(C)(C)CC(O)(Cn2ccc(=O)c3ccccc32)C(F)(F)F)c1 (stereo not drawn) | potent activity |
| CC(C)(CC(O)(Cn1ccc(=O)c2ccccc21)C(F)(F)F)c1ccc(O)c(F)c1 (stereo not drawn) [1-[4-(3-Fluoro-4-hydroxyphenyl)-2-hydroxy-4-methyl-2-trifluoromethylpentyl]-1H-quinolin-4-one] | potent activity |

Now from value to molecule:

| activity in the GR binding assay | Structure (SMILES) |
| --- | --- |
| potent activity | COc1ccc(F)cc1C(C)(C)CC(O)(CN1CCNc2ccccc21)C(F)(F)F (stereo not drawn) [2-(3,4-Dihydro-2H-quinoxalin-1-ylmethyl)-1,1,1-trifluoro-4-(5-fluoro-2-methoxyphenyl)-4-methylpentan-2-ol] |
| potent activity | CC(C)(CC(O)(Cn1ccc(=O)c2cc(Cl)ccc21)C(F)(F)F)c1cc(F)ccc1O (stereo not drawn) [6-Chloro-1-[4-(5-fluoro-2-hydroxyphenyl)-2-hydroxy-4-methyl-2-trifluoromethylpentyl]-1H-quinolin-4-one] |
| potent activity | CC(C)(CC(O)(Cn1ccc(=O)c2ncccc21)C(F)(F)F)c1cc(F)ccc1O (stereo not drawn) [1-[4-(5-Fluoro-2-hydroxyphenyl)-2-hydroxy-4-methyl-2-trifluoromethylpentyl]-1H-[1,5]naphthyridin-4-one] |
| potent activity | CC(=O)COc1ccc(F)cc1C(C)(C)CC(O)(Cn1ccc(=O)c2ccccc21)C(F)(F)F (stereo not drawn) [1-{4-[5-Fluoro-2-(2-oxopropoxy)phenyl]-2-hydroxy-4-methyl-2-trifluoromethylpentyl}-1H-quinolin-4-one] |
| potent activity | COc1ccc(F)cc1C(C)(C)CC(O)(Cn1ncc(=O)c2ccccc21)C(F)(F)F (stereo not drawn) [1-[4-(5-Fluoro-2-methoxyphenyl)-2-hydroxy-4-methyl-2-trifluoromethylpentyl]-1H-cinnolin-4-one] |
| potent activity | COc1ccc(-c2c(C)noc2C)cc1C(C)(C)CC(O)(Cn1ccc(=O)c2ccccc21)C(F)(F)F (stereo not drawn) [1-{4-[5-(3,5-Dimethylisoxazol-4-yl)-2-methoxyphenyl]-2-hydroxy-4-methyl-2-trifluoromethylpentyl}-1H-quinolin-4-one] |
| potent activity | COc1ccc(F)cc1C(C)(C)CC(O)(CN1CCc2ccccc21)C(F)(F)F (stereo not drawn) [2-(2,3-Dihydroindol-1-ylmethyl)-1,1,1-trifluoro-4-(5-fluoro-2-methoxyphenyl)-4-methylpentan-2-ol] |
| potent activity | COc1ccc(F)cc1C(C)(C)CC(O)(Cn1ccc(=O)c2cccc(F)c21)C(F)(F)F (stereo not drawn) [8-Fluoro-1-[4-(5-fluoro-2-methoxyphenyl)-2-hydroxy-4-methyl-2-trifluoromethylpentyl]-1H-quinolin-4-one] |
| potent activity | COc1ccc(F)cc1C(C)(C)CC(O)(Cn1cc(C(F)(F)F)cc([N+](=O)[O-])c1=O)C(F)(F)F (stereo not drawn) [1-[4-(5-Fluoro-2-methoxyphenyl)-2-hydroxy-4-methyl-2-trifluoromethylpentyl]-3-nitro-5-trifluoromethyl-1H-pyridin-2-one] |
| potent activity | COc1ccc(-c2ccoc2)cc1C(C)(C)CC(O)(Cn1ccc(=O)c2ccccc21)C(F)(F)F (stereo not drawn) [1-[4-(5-Furan-3-yl-2-methoxyphenyl)-2-hydroxy-4-methyl-2-trifluoromethylpentyl]-1H-quinolin-4-one] |
| potent activity | COc1ccc(F)cc1C(C)(C)CC(C)(O)Cn1cc(C)c(=O)c(C)c1 (stereo not drawn) [1-[4-(5-Fluoro-2-methoxyphenyl)-2-hydroxy-2,4-dimethylpentyl]-3,5-dimethyl-1H-pyridin-4-one] |
| potent activity | COc1ccc(C(C)(C)CC(O)(Cn2ccc(=O)c3ccccc32)C(F)(F)F)cc1F (stereo not drawn) [1-[4-(3-Fluoro-4-methoxyphenyl)-2-hydroxy-4-methyl-2-trifluoromethylpentyl]-1H-quinolin-4-one] |
| potent activity | COc1ccc(Br)cc1C(C)(C)CC(O)(Cn1ccc(=O)c2ccccc21)C(F)(F)F (stereo not drawn) [1-[4-(5-Bromo-2-methoxyphenyl)-2-hydroxy-4-methyl-2-trifluoromethylpentyl]-1H-quinolin-4-one] |
| potent activity | CC(C)(CC(O)(Cn1ccc(=O)c2ccccc21)C(F)(F)F)c1cc(Br)cc2c1OCO2 (stereo not drawn) [1-[4-(6-Bromobenzo[1,3]dioxol-4-yl)-2-hydroxy-4-methyl-2-trifluoromethylpentyl]-1H-quinolin-4-one] |
| potent activity | CC(=O)COc1cccc(C(C)(C)CC(O)(Cn2ccc(=O)c3ccccc32)C(F)(F)F)c1 (stereo not drawn) [1-{2-Hydroxy-4-methyl-4-[3-(2-oxopropoxy)phenyl]-2-trifluoromethylpentyl}-1H-quinolin-4-one] |
| potent activity | CC(C)(CC(O)(Cn1cc(CO)c(=O)c2ccccc21)C(F)(F)F)c1cc(F)ccc1O (stereo not drawn) [1-[4-(5-Fluoro-2-hydroxyphenyl)-2-hydroxy-4-methyl-2-trifluoromethylpentyl]-3-hydroxymethyl-1H-quinolin-4-one] |
| potent activity | COc1ccc(F)cc1C(C)(C)CC(O)(CN1CC(C)N(C=O)C(C)C1)C(F)(F)F (stereo not drawn) [4-[4-(5-Fluoro-2-methoxyphenyl)-2-hydroxy-4-methyl-2-trifluoromethylpentyl]-2,6-dimethylpiperazine-1-carbaldehyde] |
| potent activity | Cc1noc(C)c1-c1cccc(C(C)(C)CC(O)(Cn2ccc(=O)c3ccccc32)C(F)(F)F)c1 (stereo not drawn) [1-{4-[3-(3,5-Dimethylisoxazol-4-yl)phenyl]-2-hydroxy-4-methyl-2-trifluoromethylpentyl}-1H-quinolin-4-one] |
